25 compounds from patent US20110053916A1 (Vertex Pharmaceuticals Incorporated, priority 2009, published 2011) can be followed below.

The test system of assay [1] is Mycobacterium tuberculosis H37Ra. Put plainly: Mycobacterium tuberculosis growth inhibition assay (microtiter dilution, resazurin reduction). The class given is cell-based. As to conditions: 7H9 broth, 9 days + 24 h resazurin, lowest concentration inhibiting resazurin reduction by >70%, several symbols in a cell = repeat determinations. The procedure:
Compounds were screened for their ability to inhibit the growth of Mycobacterium tuberculosis H37Ra using a standard microtiter dilution method with reduction of the dye resazurin as an indicator of growth. The growth assay was carried out in standard Mycobacterium liquid growth medium, 7H9Broth (BD Biosciences, Franklin Lakes, N.J.) supplemented with 10% ADC enrichment (BD Biosciences, Franklin Lakes, N.J.). The medium was inoculate with ˜1×10^6 cells/milliliter of Mycobacterium tuberculosis H37Ra grown on a the surface of a growth medium solid medium (7H11 agar [BD Biosciences, Franklin Lakes, N.J.] supplemented with 10% OADC enrichment [BD Biosciences, Franklin Lakes, N.J.]).
Two-fold serial dilutions (either 7 or 11-step series) of test compounds in DMSO were dispensed into 96-well assay plates (sterile, black sided, clear bottom wells) in a volume of 1 microliter. One microliter of DMSO was dispensed into a control well at the end of each series. One-hundred microliters of the bacterial cell suspension in growth medium was dispensed into each test well containing a DSMO solution of compound. The assay plates were covered with a fitted lid and incubated at 37° C. in a humidified chamber for 9 days. On the ninth day 30 microliters of a 0.01% solution of resazurin (Sigma Chemical Co., St. Louis, Mo.) in distilled water was added to each well and the baseline fluorescence of resazurin was determined by measuring well fluorescence at an excitation wavelength of 492 nm and an emission wavelength of 595 nm on a Spectrafluor Plus (Tecan, Durham, N.C.) instrument. The assay plates were returned to the incubation chamber for 24 hours. After 24 hours, the fluorescence of the wells (resulting from the reduction of resazurin dye) was measured at an excitation wavelength of 492 nm and an emission wavelength of 595 nm on the Spectrafluor Plus instrument. The minimum inhibitory concentration (MIC) was called as the lowest concentration of compound that inhibited the reduction of resazurin by >70%, as compared to the DMSO (untreated) control wells. MIC values are represented as the following values: • A* <1.6 μM • A 1.6 μM<12.5 μM • B** 12.5 μM-25.0 μM • B* 25.0 μM-50.0 μM • B 50.0 μM-100.0 μM • C >100.0 μM
(The colour change of resazurin is a common sign of viable cells or microbes.)

For assay [2], the target named is T1, PknB (Mycobacterium tuberculosis, UniProt P9WI81).
T1 construct: made in house
T1 sequence (P9WI81 whole entry): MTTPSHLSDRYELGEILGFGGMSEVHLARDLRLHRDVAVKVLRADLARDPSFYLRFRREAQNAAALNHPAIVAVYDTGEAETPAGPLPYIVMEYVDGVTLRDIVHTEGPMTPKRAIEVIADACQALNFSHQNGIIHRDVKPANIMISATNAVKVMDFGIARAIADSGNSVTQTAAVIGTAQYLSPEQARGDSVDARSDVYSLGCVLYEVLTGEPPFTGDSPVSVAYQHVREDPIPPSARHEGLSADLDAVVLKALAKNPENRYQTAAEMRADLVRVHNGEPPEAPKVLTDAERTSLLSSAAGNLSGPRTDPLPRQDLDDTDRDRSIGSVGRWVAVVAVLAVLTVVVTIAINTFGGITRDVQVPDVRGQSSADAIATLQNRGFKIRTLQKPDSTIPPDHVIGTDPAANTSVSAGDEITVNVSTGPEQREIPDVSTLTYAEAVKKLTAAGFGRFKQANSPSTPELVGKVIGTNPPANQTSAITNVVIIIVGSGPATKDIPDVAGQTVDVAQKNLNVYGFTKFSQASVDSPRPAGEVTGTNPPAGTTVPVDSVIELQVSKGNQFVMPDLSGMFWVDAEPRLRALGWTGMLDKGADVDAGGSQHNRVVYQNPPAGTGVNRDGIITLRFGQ
In words: biochemical. More on the design: species or system M. tuberculosis. As to conditions: 3 nM PknB, 6 uM GarA, 3 μM ATP, 30 min, competitive tight-binding fit, several symbols in a cell = repeat determinations; for Ki: read-out: Ki Values.

Molecules are shown by their SMILES.

The Ki is the equilibrium dissociation constant of an inhibitor or competing ligand from its target.

Turning to `CC(C)c1cc(Nc2nc(-c3ccc(S(N)(=O)=O)s3)ncc2Cl)n[nH]1` [Compound 225, 5-[5-chloro-4-[(5-isopropyl-1H-pyrazol-3-yl)amino]-pyrimidin-2-yl]thiophene-2-sulfonamide], the MIC values result in assay [1] was “B++”. For the same compound, in assay [2], the Ki was in the range of 0.001 to 0.01 µM.

As for `Cc1cc(Nc2nc(-c3ccc(S(N)(=O)=O)s3)ncc2Cl)n[nH]1` [Compound 224, 5-[5-chloro-4-[(5-methyl-1H-pyrazol-3-yl)amino]-pyrimidin-2-yl]thiophene-2-sulfonamide], in assay [1], the MIC values entry was “B++”. The Ki in assay [2] lay within 0.001 to 0.01 µM.

For `O=S(=O)(NC1CC1)c1ccc(Nc2nccc(Nc3cc(C4CC4)n[nH]3)n2)cc1` [Compound 90, N-cyclopropyl-4-[[4-[(5-cyclopropyl-2H-pyrazol-3-yl)amino]pyrimidin-2-yl]amino]-benzenesulfonamide], the MIC values entry in assay [1] is recorded as “B+”. Moreover, in assay [2], the inhibition constant Ki lay within 0.01 to 0.05 µM.

`C#Cc1c(C)nc(-c2ccc(S(=O)(=O)NC(C)(C)C)s2)nc1Nc1cc(C2CC2)[nH]n1` [Compound 268, 5-[4-[(5-cyclopropyl-1H-pyrazol-3-yl)amino]-5-ethynyl-6-methyl-pyrimidin-2-yl]-N-tert-butyl-thiophene-2-sulfonamide]: the MIC values entry in assay [1] is “B++”. Further, the Ki in assay [2] was in the range of 0.01 to 0.05 µM.

`COCCNS(=O)(=O)c1ccc(-c2ncc(Cl)c(Nc3cc(C4CC4)[nH]n3)n2)s1` [Compound 88, 5-(5-chloro-4-(5-cyclopropyl-1H-pyrazol-3-ylamino)pyrimidin-2-yl)-N-(2-methoxyethyl)thiophene-2-sulfonamide]: in assay [1], the MIC values entry was “B+, C”. For the same compound, the Ki in assay [2] lay in the range of 0.01 to 0.05 µM.

Take `C=C(Cl)c1cnc(-c2ccccc2)nc1Nc1cc(C2CC2)[nH]n1` [Compound 21, 5-(1-chlorovinyl)-N-(5-cyclopropyl-1H-pyrazol-3-yl)-2-phenyl-pyrimidin-4-amine]: in assay [1], the MIC values entry is recorded as “B+, B, B”. Further, the Ki in assay [2] fell in the range of 0.5 to 1 µM.

In the case of `CN(C)CCNS(=O)(=O)c1ccc(-c2ncc(Cl)c(Nc3cc(C4CC4)[nH]n3)n2)s1` [Compound 79, 5-[5-chloro-4-[(5-cyclopropyl-1H-pyrazol-3-yl)amino]-pyrimidin-2-yl]-N-(2-dimethylaminoethyl)thiophene-2-sulfonamide], the MIC values entry in assay [1] is given as “B+, B”. Also, the Ki in assay [2] fell in the range of 0.01 to 0.05 µM.

`NS(=O)(=O)c1ccc(-c2ncc(C(F)(F)F)c(Nc3cc(C4CC4)[nH]n3)n2)s1` [Compound 159, 5-(4-(5-cyclopropyl-1H-pyrazol-3-ylamino)-5-(trifluoromethyl)pyrimidin-2-yl)thiophene-2-sulfonamide]: the MIC values result in assay [1] is reported as “B+”. In addition, the Ki in assay [2] fell in the range of 0.1 to 0.5 µM.

For `NS(=O)(=O)c1ccc(Nc2nccc(Nc3cc(C4CC4)[nH]n3)n2)cc1` [Compound 12, 4-(4-(5-cyclopropyl-1H-pyrazol-3-ylamino)pyrimidin-2-ylamino)benzene sulfonamide], the MIC values result in assay [1] is on record as “B+”. The inhibition constant Ki in assay [2] lay in the range of 0.001 to 0.01 µM.

Take `C#Cc1cnc(-c2ccc(Cl)c(C(N)=O)c2)nc1Nc1cc(C2CC2)n[nH]1` [Compound 128, 2-chloro-5-(4-(3-cyclopropyl-1H-pyrazol-5-ylamino)-5-ethynylpyrimidin-2-yl)benzamide]: the MIC values entry in assay [1] is given as “B+, C”. Further, the inhibition constant (Ki) in assay [2] was in the range of 0.01 to 0.05 µM.

Regarding `CCCc1cnc(N2CCCCC2)nc1Nc1cc(C2CC2)[nH]n1` [Compound 66, N-(5-cyclopropyl-1H-pyrazol-3-yl)-2-(1-piperidyl)-5-propyl-pyrimidin-4-amine], the MIC values entry in assay [1] is “B+”. The inhibition constant Ki in assay [2] was 1 to 2 µM.

As for `O=S(=O)(c1ccc(-c2ncc(Cl)c(Nc3cc(C4CC4)[nH]n3)n2)s1)N1CCCC1` [Compound 98, 5-chloro-N-(5-cyclopropyl-1H-pyrazol-3-yl)-2-(5-pyrrolidin-1-ylsulfonyl-2-thienyl)-pyrimidin-4-amine], the MIC values result in assay [1] is listed as “B, C”. The inhibition constant (Ki) in assay [2] lay within 0.001 to 0.01 µM.

Take `CC(C)(C)OC(=O)NCc1ccc(-c2ncc(Cl)c(Nc3cc(C4CC4)n[nH]3)n2)s1` [Compound 261, tert-butyl [[5-[5-chloro-4-[(5-cyclopropyl-2H-pyrazol-3-yl)amino]-pyrimidin-2-yl]-2-thienyl]methylamino]formate]: the MIC values entry in assay [1] is reported as “B++”. In assay [2], the Ki was in the range of 0.1 to 0.5 µM.

For `C#Cc1cnc(-c2ccc(S(=O)(=O)NCCO)s2)nc1Nc1cc(C2CC2)[nH]n1` [Compound 108, 5-(4-(3-cyclopropyl-1H-pyrazol-5-ylamino)-5-ethynylpyrimidin-2-yl)-N-(2-hydroxyethyl)thiophene-2-sulfonamide], the MIC values entry in assay [1] is “B+”. Also, the inhibitory constant (Ki) in assay [2] was in the range of 0.001 to 0.01 µM.

Turning to `C[C@@H](O)c1ccc(-c2ncc(Cl)c(Nc3cc(C4CC4)[nH]n3)n2)s1` (stereo in doubt) [Compound 133, 1-[5-[5-chloro-4-[(5-cyclopropyl-1H-pyrazol-3-yl)amino]-pyrimidin-2-yl]-2-thienyl]ethanol], the MIC values entry in assay [1] is recorded as “B++”. Besides, in assay [2], the “Ki Values” was “A**, A*”.

`O=S(=O)(O)c1ccc(-c2ncc(Cl)c(Nc3cc(C4CC4)[nH]n3)n2)s1` [Compound 306, 5-[5-chloro-4-[(5-cyclopropyl-1H-pyrazol-3-yl)amino]-pyrimidin-2-yl]thiophene-2-sulfonic acid]: the MIC values entry in assay [1] is on record as “B+”. For the same compound, the Ki in assay [2] was in the range of 0.01 to 0.05 µM.

Regarding `[H]/N=C(\N)c1ccc(-c2ncc(Cl)c(Nc3cc(C4CC4)[nH]n3)n2)s1` [Compound 205, 5-(5-chloro-4-(5-cyclopropyl-1H-pyrazol-3-ylamino)pyrimidin-2-yl)thiophene-2-carboximidamide], the MIC values result in assay [1] is recorded as “B, C”. In assay [2], the “Ki Values” is reported as “A, B**”.

As to `Cc1cnc(-c2ccc([C@@H](C)O)s2)nc1Nc1cc(C2CC2)[nH]n1` [Compound 145, (R)-1-(5-(4-(5-cyclopropyl-1H-pyrazol-3-ylamino)-5-methylpyrimidin-2-yl)thiophen-2-yl)ethanol], in assay [1], the MIC values result is “B++, B+”. Moreover, the inhibition constant (Ki) in assay [2] was in the range of 0.05 to 0.1 µM.

As to `Cc1cnc(-c2ccc(Cl)c(C(N)=O)c2)nc1Nc1cc(C2CC2)[nH]n1` [Compound 32, 2-chloro-5-[4-[(5-cyclopropyl-1H-pyrazol-3-yl)amino]-5-methyl-pyrimidin-2-yl]-benzamide], in assay [1], the MIC values entry is recorded as “B+”. In assay [2], the inhibition constant (Ki) lay within 0.05 to 0.1 µM.

Take `O=[N+]([O-])c1ccc(-c2ncc(Cl)c(Nc3cc(C4CC4)[nH]n3)n2)s1` [Compound 203, 5-Chloro-N-(5-cyclopropyl-1H-pyrazol-3-yl)-2-(5-nitrothiophen-2-yl)pyrimidin-4-amine]: the MIC values result in assay [1] was “A+, A”. Further, the inhibition constant Ki in assay [2] was in the range of 0.001 to 0.01 µM.

Consider `O=C(O)c1ccc(Nc2ncc(Cl)c(Nc3cc(C4CC4)[nH]n3)n2)cc1` [Compound 77, 4-[[5-chloro-4-[(5-cyclopropyl-1H-pyrazol-3-yl)amino]-pyrimidin-2-yl]amino]benzoic acid], for which the MIC values entry in assay [1] is “B, C”. The inhibition constant (Ki) in assay [2] lay in the range of 0.1 to 0.5 µM.

For the compound `CC(O)c1ccc(-c2ncc(F)c(Nc3cc(C4CC4)[nH]n3)n2)s1` (stereo in doubt) [Compound 144, (S)-1-(5-(4-(5-cyclopropyl-1H-pyrazol-3-ylamino)-5-fluoropyrimidin-2-yl)thiophen-2yl)ethanol], in assay [1], the MIC values result is reported as “B++”. In assay [2], the Ki is 0.01 to 0.05 µM.

On to `CC(O)c1cccc(-c2nccc(Nc3cc(C4CC4)[nH]n3)n2)c1` (centres unmarked) [Compound 316, 1-[3-[4-[(5-cyclopropyl-1H-pyrazol-3-yl)amino]pyrimidin-2-yl]phenyl]ethanol], for which, in assay [1], the MIC values entry is on record as “B+”. Also, in assay [2], the Ki fell in the range of 0.01 to 0.05 µM.

As for `COCCNS(=O)(=O)c1ccc(Nc2nccc(Nc3cc(C4CC4)n[nH]3)n2)cc1` [Compound 112, 4-[[4-[(5-cyclopropyl-2H-pyrazol-3-yl)amino]pyrimidin-2-yl]amino]-N-(2-methoxyethyl)benzenesulfonamide], the MIC values result in assay [1] is “B+”. In assay [2], the Ki was in the range of 0.01 to 0.05 µM.

Turning to `Cc1cc(-c2ccc(S(N)(=O)=O)s2)nc(Nc2cc(C3CC3)n[nH]2)n1` [Compound 322, 5-[2-[(5-cyclopropyl-2H-pyrazol-3-yl)amino]-6-methyl-pyrimidin-4-yl]thiophene-2-sulfonamide], the MIC values result in assay [1] was “B++”. In assay [2], the inhibition constant Ki lay within 0.001 to 0.01 µM.
